Test results: PubChem BioAssay (NCI)
Where “and” joins values, the source holds several entries; their conditions need not be identical. Equal entries are not always repeated.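 Assay format: 96-well plates, 48-hour exposure. GI50 = concentration required for 50% inhibition of growth. TGI is the concentration that stops growth completely.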

How the values were obtained:
Assay in all cases: NCI-60 cell line screen, 48 h
OVCAR-5 ovarian = test system: OVCAR-5 ovarian
MOLT-4 leukemia = test system: MOLT-4 leukemia
HCT-15 colon = test system: HCT-15 colon
NCI/ADR-RES ovarian = test system: NCI/ADR-RES ovarian
MDA-MB-435 = test system: MDA-MB-435
EKVX NSCLC = test system: EKVX NSCLC
K-562 leukemia = test system: K-562 leukemia
NCI-H23 lung = test system: NCI-H23 lung
HCC-2998 colon = test system: HCC-2998 colon
OVCAR-4 ovarian = test system: OVCAR-4 ovarian

Row | Structure (SMILES) | GI50 (OVCAR-5 ovarian) | TGI (OVCAR-5 ovarian) | GI50 (MOLT-4 leukemia) | TGI (MOLT-4 leukemia) | GI50 (HCT-15 colon) | TGI (HCT-15 colon) | GI50 (NCI/ADR-RES ovarian) | TGI (NCI/ADR-RES ovarian) | GI50 (MDA-MB-435) | TGI (MDA-MB-435) | GI50 (EKVX NSCLC) | TGI (EKVX NSCLC) | GI50 (K-562 leukemia) | TGI (K-562 leukemia) | GI50 (NCI-H23 lung) | TGI (NCI-H23 lung) | GI50 (HCC-2998 colon) | TGI (HCC-2998 colon) | GI50 (OVCAR-4 ovarian) | TGI (OVCAR-4 ovarian)
1 | O=C(/C=C/C12c3ccccc3C(c3ccccc31)C1C(=O)NC(=O)C12)c1ccc(F)cc1 (stereo not drawn) | 1.92 µM | 4.12 µM | 0.457 µM | 2.9 µM | 1.66 µM | 4.2 µM | 1.87 µM | 4.03 µM | 2.44 µM | 6.41 µM | 1.7 µM | 4.45 µM | 1.42 µM | 4.75 µM | 1.83 µM | 3.91 µM | 1.62 µM | 3.1 µM | 3.46 µM | 13.2 µM
2 | CC1=C(C(=O)Nc2cc(Cl)c3[nH]ncc3c2)C(c2ccc(C(F)(F)F)cc2)CC(=O)N1 (stereo not drawn) | > 25 µM | > 25 µM | 11.8 µM | > 25 µM | > 25 µM | > 25 µM | > 25 µM | > 25 µM | > 23.3 µM | > 25 µM | > 25 µM | > 25 µM | > 25 µM | > 25 µM | > 25 µM | > 25 µM | > 25 µM | > 25 µM | > 25 µM | > 25 µM
3 | COc1cc2nccc(Oc3ccc(NC(=O)Nc4cc(C)on4)c(Cl)c3)c2cc1OC | 4.15 µM and 4.08 µM | 42.9 µM and > 10 µM | 2.12 µM and 1.86 µM | 44.1 µM and > 10 µM | 4.36 µM and 4.2 µM | > 100 µM | 3.08 µM and 3.53 µM | > 100 µM | 2.74 µM and 2.98 µM | > 59.6 µM | 3.02 µM and 4.69 µM | 49.6 µM and > 10 µM | 0.0349 µM and 0.0609 µM | > 100 µM | 2.97 µM and 3.07 µM | > 100 µM | 9 µM and > 10 µM | > 100 µM | 2.34 µM and 4.13 µM | > 65.2 µM
4 | Cc1cc(N2CCOCC2)nc(N(CCCNc2ccnc3cc(Cl)ccc23)Cc2ccco2)n1 | 4.23 µM | 19.3 µM | 3.02 µM | 13.1 µM | 2.37 µM | 11.6 µM | 1.95 µM | 6.66 µM | 0.858 µM | 6.41 µM | 3.73 µM | 16.7 µM | 1.33 µM | 11.7 µM | 2.76 µM | 12.7 µM | 2.97 µM | 8.18 µM | 3.07 µM | 15.2 µM
5 | CN1CCN(c2ccc(NC(=O)c3cncnc3Nc3ccc(OCc4ccccn4)c(Cl)c3)cc2)CC1 | 3.5 µM | 9.11 µM | 1.64 µM | 9.42 µM | 0.961 µM | 3.19 µM | 6.28 µM | 17.1 µM | 0.605 µM | 1.14 µM | 6.25 µM | 14.6 µM | 0.778 µM | 2.28 µM | 5.07 µM | 11.5 µM | 4.22 µM | 9.15 µM | 4.69 µM | 12.4 µM
6 | CC(=O)O[C@H](C[C@H](C(C)C)N(C)C(=O)[C@@H](NC(=O)[C@H]1CCCN1C)C(C)C)c1nc(C(=O)N[C@@H](Cc2ccccc2)C[C@H](C)C(=O)O)c(C)s1 | 0.00716 µM | > 16.7 µM | < 0.00167 µM | > 16.7 µM | 0.00772 µM | > 16.7 µM | 0.102 µM | > 16.7 µM | < 0.00167 µM | < 0.00167 µM | 0.0044 µM | > 16.7 µM | < 0.00167 µM | > 16.7 µM | 0.00531 µM | > 16.7 µM | 0.00252 µM | > 16.7 µM | 0.0773 µM | > 16.7 µM
7 | CCOC(=O)C#Cc1c(C(=O)OCC)nnn1Cc1ccc([N+](=O)[O-])cc1 | 8.34 µM | 22.7 µM | 2.16 µM | 13.3 µM | 1.66 µM | 3.29 µM | 5.5 µM | 21.1 µM | 3.35 µM | 12.4 µM | 16.4 µM | 32.9 µM | 1.32 µM | 10.7 µM | 8.2 µM | 26.9 µM | 18.3 µM | 32.2 µM | 2.54 µM | 7.14 µM
8 | CC(=O)O[C@H]1[C@@H]2OC(=O)C(CSc3ccccc3)[C@@H]2C[C@H]2O[C@]2(C)CC/C=C(\C)CCC[C@@H]1C (stereo partly drawn) | 12.4 µM | 33.7 µM | 2.52 µM | > 23.8 µM | 1.95 µM | 6.52 µM | 2.99 µM | 32 µM | 2.12 µM | 5.9 µM | 3.27 µM | 12.9 µM | 2.15 µM | > 24.6 µM | 3.51 µM | 22.2 µM | 4.7 µM | 16.3 µM | 2.98 µM | 10.9 µM
9 | CC(CN(C)C)Oc1ccccc1NC1=C(Cl)C(=O)C(Nc2ccccc2OC(C)CN(C)C)=C(Cl)C1=O (stereo not drawn) | 0.935 µM | 2.44 µM | 0.195 µM | 0.51 µM | 0.176 µM | 0.375 µM | 1.97 µM | 8.53 µM | 0.753 µM | 2.15 µM | 0.685 µM | 1.81 µM | 0.21 µM | 0.507 µM | 0.273 µM | 0.915 µM | 1.29 µM | 2.91 µM | 0.146 µM | 0.279 µM
10 | CN(CC(=O)Nc1nc2ccccc2[nH]1)S(=O)(=O)c1ccc(Cl)cc1 | > 100 µM | > 100 µM | > 100 µM | > 100 µM | > 100 µM | > 100 µM | > 100 µM | > 100 µM | > 100 µM | > 100 µM | 52.3 µM | > 100 µM | > 100 µM | > 100 µM | > 100 µM | > 100 µM | > 100 µM | > 100 µM | > 100 µM | > 100 µM
11 | NS(=O)(=O)CC1CC[CH-]CC1.[Cl-].[Cl-].[Cl-].[Cl-].[Cl-].[Sb+5].c1ccncc1 | > 100 µM | > 100 µM | – | – | > 100 µM | > 100 µM | > 100 µM | > 100 µM | > 100 µM | > 100 µM | > 100 µM | > 100 µM | > 100 µM | > 100 µM | > 100 µM | > 100 µM | > 100 µM | > 100 µM | > 100 µM | > 100 µM
12 | Oc1c(Cl)cc(Cl)cc1C(c1cc(Cl)cc(Cl)c1O)C(Cl)(Cl)Cl | 3.27 µM | 14.5 µM | 3.67 µM | 10.4 µM | 0.825 µM | 13.8 µM | 1.99 µM | 7.25 µM | 2.13 µM | 5.12 µM | 1.61 µM | 4.51 µM | 1.1 µM | 20.4 µM | 1.45 µM | 5.15 µM | 1.91 µM | 5.08 µM | 3.21 µM | 19 µM
